Publication PMC9503898, “Synthesis and Evaluation of Two Long-Acting SSTR2 Antagonists for Radionuclide Therapy of Neuroendocrine Tumors” (Pharmaceuticals, 2022)
Positions of bridges follow the written chain, without caps; N, C: chain ends. Non-standard residues stand in square brackets, D forms with d. Residues, ends and D or L forms follow the SMILES beside them. *: point of attachment. DOTA = O=C(O)CN1CCN(CC(=O)O)CCN(CC(=O)*)CCN(CC(=O)O)CC1; dPhe(4-NHCONH2) = NC(=O)Nc1ccc(C[C@@H](N)C(=O)O)cc1; Dihydroorotyl(S) = O=C1C[C@@H](C(=O)*)NC(=O)N1; Phe(4-Cl) = N[C@@H](Cc1ccc(Cl)cc1)C(=O)O; Phe(4-NH2) = Nc1ccc(C[C@H](N)C(=O)O)cc1

Experiments:
[1] = system: H69 tumor tissues expressing SSTR2; test: Uptake and autoradiography of H69 tumor sections; type: binding, human; details: 10^−9 M, 90 min, rt, 10 μm sections, phosphor screen 48 h
Experimental: Subcutaneous fresh frozen H69 tumor tissues were cut at 10 μm thickness and immediately mounted on Starfrost glass slides (Thermo Scientific; Bleiswijk, The Netherlands). Tissue sections were incubated with washing buffer (167 mM Tris-HCl, 5 mM MgCl2) containing 0.25% BSA for 10 min at rt to prevent nonspecific binding. […] Each slide was drained off and washed with PBS. Finally, the slides were exposed to super-resolution phosphor screens for 48 h and imaged with the Cyclone system (PerkinElmer; Waltham, MA, USA). Images were analyzed and quantified using the Optiquant software Version 5 (PerkinElmer; Waltham, MA, USA).

[2] = system: U2OS-SSTR2 cells; test: Uptake and internalization assay; type: cell-based, human; details: 10^−9 M, 2 h, 37 °C, gamma counter
Experimental: Human osteosarcoma cells (U2OS) stably expressing the SSTR2 receptor were used in all in vitro cell assays. Cells were cultured in Dulbecco’s modified Eagle’s medium (DMEM) from Gibco (Paisley, UK) supplemented with 2 mM L-glutamine, 10% fetal bovine serum (FBS), 50 units/mL penicillin, and 50 μg/mL streptomycin (Sigma Aldrich; Haarlerbergweg, The Netherlands) and maintained at 37 °C and in a 5% CO2 humidified chamber. Passages were performed weekly using trypsin/EDTA (0.05%/0.02% w/v).
Cells were seeded in 6-well plates 48 h before the experiment (2 × 10^5 cells/well). […] After incubation, medium was removed, and cells were washed twice with PBS. The membrane-bound fraction was collected by incubating cells with an acid buffer (50 mM glycine, 100 mM sodium chloride (NaCl), pH 2.8) for 10 min at rt. Cells were lysed using 0.5 M NaOH for 10 min at rt to acquire the internalized fraction. Both fractions were counted in a γ-counter, and data were expressed as percentage of added dose.

[3] = in vivo; details: mouse, iv, 0.5 nmol, total radioactivity
[4] = in vivo; details: mouse, iv, 20 MBq/0.5 nmol per animal, total radioactivity
[5] = set-up: method as in PMID 29668724; details: literature value; cited from earlier work

C[C@@H](O)[C@@H]1NC(=O)[C@H](CCCCN)NC(=O)[C@@H](Cc2ccc(NC(N)=O)cc2)NC(=O)[C@H](Cc2ccc(NC(=O)[C@@H]3CC(=O)NC(=O)N3)cc2)NC(=O)[C@H](NC(=O)[C@H](Cc2ccc(Cl)cc2)NC(=O)CN2CCN(CC(=O)O)CCN(CC(=O)O)CCN(CC(=O)O)CC2)CSSC[C@@H](C(=O)N[C@H](Cc2ccc(O)cc2)C(N)=O)NC1=O [[^177Lu]Lu-JR11, metal not drawn] ({DOTA}-[Phe(4-Cl)][dC][Phe(4-NH2)](Dihydroorotyl(S))[dPhe(4-NHCONH2)]KTC[dY]-NH2; disulfide 2-7; N-terminus and C-terminus assumed)
Radioactive uptake in H69 tumor tissue sections (autoradiography) [1]: 930 ± 37 DLU/mm^2
Total uptake in U2OS-SSTR2 cells [2]: 16.2 ± 3.0 % added dose
tissue to tissue ratio at 4 h [3]: 0.6 ± 0.05
tissue to tissue ratio at 72 h [3]: 1.2 ± 0.3
tissue uptake at 4 h ([3]; Bone Marrow uptake): 1.1 ± 2 %ID/g
tissue uptake at 4 h ([3]; Intestine uptake): 0.5 ± 0.1 %ID/g
tissue uptake at 4 h ([3]; Kidneys uptake): 12.6 ± 1.2 %ID/g
tissue uptake at 24 h ([3]; Kidneys uptake): 8.6 ± 2.3 %ID/g
tissue uptake at 48 h ([3]; Kidneys uptake): 4.1 ± 0.2 %ID/g
tissue uptake at 72 h ([3]; Kidneys uptake): 3.4 ± 1.4 %ID/g
tissue uptake at 4 h ([3]; Liver uptake): 0.5 %ID/g
tissue uptake at 24 h ([3]; Liver uptake): 0.3 %ID/g
tissue uptake at 4 h ([3]; Lung uptake): 1.3 ± 0.3 %ID/g
tissue uptake at 24 h ([3]; Lung uptake): 0.4 %ID/g
tissue uptake at 4 h ([3]; Pancreas uptake): 3.5 ± 0.4 %ID/g
tissue uptake at 48 h ([3]; Pancreas uptake): 0.6 ± 0.1 %ID/g
tissue uptake at 72 h ([3]; Pancreas uptake): 0.3 %ID/g
tissue uptake at 4 h ([3]; Skin uptake): 0.3 ± 0.1 %ID/g
tissue uptake at 4 h ([3]; Spleen uptake): 0.3 ± 0.1 %ID/g
tissue uptake at 4 h ([3]; Stomach uptake): 1.7 ± 0.3 %ID/g
tissue uptake at 24 h ([3]; Stomach uptake): 1.5 ± 1.2 %ID/g
tissue uptake at 48 h ([3]; Stomach uptake): 0.6 ± 0.2 %ID/g
tissue uptake at 72 h ([3]; Stomach uptake): 0.4 ± 0.1 %ID/g
tissue uptake at 4 h ([3]; Tumor uptake): 8.4 ± 0.5 %ID/g
tissue uptake at 24 h ([3]; Tumor uptake): 6.1 ± 0.5 %ID/g
tissue uptake at 48 h ([3]; Tumor uptake): 4.6 ± 0.3 %ID/g
tissue uptake at 72 h ([3]; Tumor uptake): 3.6 ± 0.4 %ID/g
tissue uptake per volume at 4 h [4]: 4 ± 0.6 %ID/mL
tissue uptake per volume at 24 h [4]: 3.3 ± 0.7 %ID/mL
tissue uptake per volume at 48 h [4]: 2.1 ± 0.5 %ID/mL
tissue uptake per volume at 72 h [4]: 1.8 ± 0.4 %ID/mL
Log D7.4 [5]: −2.5 [18]
